Experimental data as given in patent US5840758A, “Oxime derivatives of fenamates as inhibitors of prostaglandin biosynthesis” (Abbott Laboratories, priority 1996, dated 1998).

How the values were obtained:
[1] = test system: PGHS-1; conditions: in words, from literature; cited from earlier work
[2] = test system: PGHS-2; conditions: in words, from literature; cited from earlier work
[3] = target: T1, human recombinant PGHS-1 (Homo sapiens, UniProt P23219); experiment: Inhibition of prostaglandin biosynthesis (PGE2 by EIA), recombinant human PGHS-1 enzyme assay; assay type: biochemical; conditions: 60 min preincubation, 10 μM arachidonic acid
T1 construct: made in house; host or cells: baculovirus/Sf9 insect cells (microsomes)
T1 sequence (P23219 24-599): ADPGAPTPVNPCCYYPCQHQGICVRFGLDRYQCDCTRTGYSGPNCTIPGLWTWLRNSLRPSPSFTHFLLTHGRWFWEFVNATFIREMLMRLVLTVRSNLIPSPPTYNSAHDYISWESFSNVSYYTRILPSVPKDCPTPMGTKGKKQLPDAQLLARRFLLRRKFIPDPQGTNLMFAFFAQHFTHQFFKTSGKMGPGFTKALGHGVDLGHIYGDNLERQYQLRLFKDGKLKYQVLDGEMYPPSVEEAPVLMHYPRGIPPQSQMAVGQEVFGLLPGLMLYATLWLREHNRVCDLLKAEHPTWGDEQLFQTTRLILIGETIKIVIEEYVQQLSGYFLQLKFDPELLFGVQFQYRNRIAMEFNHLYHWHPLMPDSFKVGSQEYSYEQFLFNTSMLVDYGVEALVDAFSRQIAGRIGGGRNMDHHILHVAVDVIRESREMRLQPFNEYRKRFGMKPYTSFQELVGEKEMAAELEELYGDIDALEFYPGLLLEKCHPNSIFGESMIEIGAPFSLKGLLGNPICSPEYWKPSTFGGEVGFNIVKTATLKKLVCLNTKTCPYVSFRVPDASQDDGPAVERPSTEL
Method: (§1) Inhibition of prostaglandin biosynthesis was evaluated in recombinant human PGHS-1 and PGHS-2 enzyme assays. Representative compounds dissolved in DMSO (3.3% v/v) were preincubated with microsomes from recombinant human PGHS-1 or PGHS-2 expressed in the baculovirus/Sf9 cell system (Gierse, J. K., Hauser, S. D., Creely, D. P., Koboldt, C., Rangwala, S., H., Isakson, P. C., and Seibert, K. Expression and selective inhibition of the constituitive and inducible forms of cyclooxygenase Biochem J. 1995, 305: 479.), together with the cofactors phenol (2 mM) and hematin (1 μM) for 60 minutes prior to the addition of 10 μM arachidonic acid. The reaction was allowed to run for 2.5 minutes at room temperature prior to quenching with HCl and neutralization with NaOH. PGE2 production in the presence and absence of the drug was determined by EIA analysis. The EIA was conducted in 96 well microtiter plates (Nunc Roskilde, Denmark) and optical density measured using a microplate reader (Vmax, Molecular Devices Corp., Menlo Park, Calif.). EIA reagents for prostaglandin determination were purchased from Perseptive Diagnostics, Cambridge, Mass. PGE2 levels were measured against standards prepared in the same milieu. The immunoassays were conducted as recommended by the manufacturer.

[4] = target: T2, human recombinant PGHS-2 (Homo sapiens, UniProt P35354); experiment: Inhibition of prostaglandin biosynthesis (PGE2 by EIA), recombinant human PGHS-2 enzyme assay; assay type: biochemical; conditions: 60 min preincubation, 10 μM arachidonic acid
T2 construct: made in house; host or cells: baculovirus/Sf9 insect cells (microsomes)
T2 sequence (P35354 18-604): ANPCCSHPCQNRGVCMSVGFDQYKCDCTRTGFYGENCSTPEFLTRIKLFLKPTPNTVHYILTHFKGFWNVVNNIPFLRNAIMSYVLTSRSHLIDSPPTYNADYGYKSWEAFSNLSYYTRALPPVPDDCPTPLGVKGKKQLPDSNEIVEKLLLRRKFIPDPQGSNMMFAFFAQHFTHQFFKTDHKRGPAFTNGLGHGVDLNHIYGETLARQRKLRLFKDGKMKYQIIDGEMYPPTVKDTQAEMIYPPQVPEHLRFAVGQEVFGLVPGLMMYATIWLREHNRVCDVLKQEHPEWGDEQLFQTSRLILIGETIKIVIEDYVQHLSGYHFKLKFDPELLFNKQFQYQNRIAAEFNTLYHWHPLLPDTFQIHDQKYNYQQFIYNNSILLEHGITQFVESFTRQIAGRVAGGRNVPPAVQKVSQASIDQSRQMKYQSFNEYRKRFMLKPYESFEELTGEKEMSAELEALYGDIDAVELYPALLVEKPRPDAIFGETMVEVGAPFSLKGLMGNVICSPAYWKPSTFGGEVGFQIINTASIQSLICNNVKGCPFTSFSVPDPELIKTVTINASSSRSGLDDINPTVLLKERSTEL
Method: as §1

In the case of `CC(C)Cc1ccc(C(C)C(=O)O)cc1` (centres unmarked) [ibuprofen], the “inhibition of PGHS-1” value [1] is given as “inhibit both isozymes” and the “inhibition of PGHS-2” value [2] is given as “inhibit both isozymes”.
In the case of `Cc1ccc(Cl)c(Nc2ccccc2C=NOCC(=O)O)c1Cl` [Example 1, 2-[(2,6-dichloro-3-methylphenyl)amino]benzaldehyde-O-carboxymethyl oxime], the IC50 [3] is reported as 850 nM and the IC50 [4] is reported as 22 nM.
For `COc1ccc2cc([C@H](C)C(=O)O)ccc2c1` [naproxen], the “inhibition of PGHS-1” value [1] is listed as “inhibit both isozymes” and the “inhibition of PGHS-2” value [2] is listed as “inhibit both isozymes”.
For `Cc1ccc(Cl)c(Nc2ccccc2C(=O)O)c1Cl` [Meclofenamic acid], the “inhibition of PGHS-1” value [1] is listed as “inhibit both PGHS-1 and PGHS-2” and the “inhibition of PGHS-2” value [2] is listed as “inhibit both PGHS-1 and PGHS-2”.
